From patent publication US20130023563A1, “AMIDINOANILINE DERIVATIVE” (AJINOMOTO CO., INC., priority 2010, published 2013)
Structures can show the parent of a compound that is named as a salt.

What was measured:
Type in all cases: biochemical
[1] = target: activated factor IIa (thrombin) (Homo sapiens, UniProt P00734); assay: Measurement of inhibitory activity against activated factor II (chromogenic substrate S-2238); settings: 0.125 U/ml thrombin, 0.1 mM S-2238, absorbance 405 nm; read-out: FIIa (pIC50) (converted)
Protocol: Experimental Example 2 Measurement of Inhibitory Activity Against Activated Factor II (FIIa, Thrombin)
(§1) Using a 96-well plate (#3396, Costar), 100 mM Tris-HCl buffer (130 μL) containing 0.02% Tween 20, 0.1% PEG6000 and 0.2M NaCl was admixed with 0.125 U/ml activated factor IIa (thrombin) (10 μL) and a test compound (10 μL) for 10 min and a color developing substrate 0.1 mM S-2238 (50 μL) was added. Using a microplate reader Benchmark Plus (BIO-RAD), the reaction rate was measured from the time course changes at absorbance 405 nm. Using the reaction rate of the control as 100%, the negative logarithmic value of the concentration that can suppress the reaction rate of the control by 50% was taken as the pIC50 value.

FXa = FXa (Homo sapiens, UniProt P00742); assay: Measurement of inhibitory activity against activated factor X (chromogenic substrate S-2222); settings: 0.015 U/ml FXa, 0.2 mM S-2222, absorbance 405 nm; read-out: FXa (pIC50) (converted)
Chain of FXa (P00742 235-488 limits assumed): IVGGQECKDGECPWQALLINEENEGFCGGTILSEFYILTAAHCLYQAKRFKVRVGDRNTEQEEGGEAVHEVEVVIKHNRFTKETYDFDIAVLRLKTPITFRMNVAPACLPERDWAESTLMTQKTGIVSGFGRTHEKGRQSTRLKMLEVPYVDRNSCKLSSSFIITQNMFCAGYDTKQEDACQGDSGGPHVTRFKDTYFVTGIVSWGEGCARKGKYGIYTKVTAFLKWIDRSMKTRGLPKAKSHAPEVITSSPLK
Chain of FXa (P00742 41-179 partner limits assumed): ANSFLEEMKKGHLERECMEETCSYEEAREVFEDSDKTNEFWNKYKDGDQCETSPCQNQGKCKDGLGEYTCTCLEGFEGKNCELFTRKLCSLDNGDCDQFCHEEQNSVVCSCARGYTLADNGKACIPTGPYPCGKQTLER
Protocol: Experimental Example 1 Measurement of Inhibitory Activity Against Activated Factor X Activity
as §1, with “mM Tris-HC1” for “mM Tris-HCl”, “with 0.015” for “with 0.125”, “U/ml FXa” for “U/ml activated factor IIa (thrombin)”, “substrate 0.2” for “substrate 0.1”, “mM S-2222” for “mM S-2238”

human plasma = assay: Anti-blood coagulant activity, aPTT method, Sysmex Cs-2000i (Experimental Example 3-2); settings: negative logarithmic value of the concentration that prolongs aPTT of the control 2 times
Protocol: Experimental Example 3-2 Measurement of Anti-Blood Coagulant Activity
An aPTT measurement method using totally automatic blood coagulation time measuring apparatus Sysmex Cs-2000i was used. A 10 mg/ml DDVP solution (DDVP standard product, Wako) (8 μL) and a test compound solution (40 μL) were placed in a sample tube (MS-18, Japan Medical Science), human plasma (standard human plasma for blood coagulation test, GCH-100A, Sysmex) (360 μL) was added and the mixture was used as a test sample. The test sample (50 μL) was incubated at 37° C. for 1 min, data fi APTT (rabbit brain-derived cephalin, DADE Behiring) (50 μL) was added, and the mixture was further incubated at 37° C. for 2 min. To the sample solution was added 0.02M calcium chloride (50 μL), and the time until plasma coagulation was automatically measured.
As the anti-blood coagulant activity, the negative logarithmic value of the concentration that prolongs aPTT of the control 2 times is shown as paPTT2.

Row | Structure (SMILES) | IC50 [1] [nM] | IC50 (FXa) [nM] | paPTT2 (human plasma)
1 | CCCC[C@@H](C(=O)Oc1ccc(C(=N)N2CCCC2)cc1C)N(C)c1cccc(C(=N)N)c1 [compound of Ex. 45, 4-[imino(pyrrolidin-1-yl)methyl]-2-methylphenyl N-{3-[amino(imino)methyl]phenyl}-N-methyl-L-norleucinate 2 trifluoroacetate] | 2570 | 3.02 | 6.71
2 | CC(=N)N1CCC(Oc2ccc(OC(=O)[C@H](C)N(C)c3cccc(C(=N)N)c3)cc2)CC1 [compound of Ex. 6, 4-[(1-ethanimidoylpiperidin-4-yl)oxy]phenyl N-{3-[amino(imino)methyl]phenyl}-N-methyl-L-alaninate 2 trifluoroacetate] | 33100 | 14.5 | 6.81
3 | CC(C)[C@@H](C(=O)Oc1ccc(C(=N)N2CCCC2)cc1)N(C)c1cccc(C(=N)N)c1 [compound of Ex. 28, 4-[imino(pyrrolidin-1-yl)methyl]phenyl N-{3-[amino(imino)methyl]phenyl}-N-methyl-L-valinate 2 trifluoroacetate] | 14100 | 30.9 | 6.55
4 | CC(=N)N1CCC(Oc2ccc(OC(=O)[C@@H](C)N(C)c3cccc(C(=N)N)c3)cc2)CC1 [compound of Ex. 7, 4-[(1-ethanimidoylpiperidin-4-yl)oxy]phenyl N-{3-[amino(imino)methyl]phenyl}-N-methyl-D-alaninate 2 trifluoroacetate] | 33100 | 21.4 | 6.85
5 | N=C(N)c1cccc(N2CCCC[C@@H]2C(=O)Oc2ccc(C(=N)N3CCCC3)nc2)c1 [compound of Ex. 50, 6-[imino(pyrrolidin-1-yl)methyl]pyridin-3-yl (2R)-1-{3-[amino(imino)methyl]phenyl}piperidine-2-carboxylate 2 trifluoroacetate] | 3630 | 5.5 | 6.66
6 | CCCC[C@@H](C(=O)Oc1ccc(C(=N)N2CCCC2)cc1OC)N(C)c1cccc(C(=N)N)c1 [compound of Ex. 43, 4-[imino(pyrrolidin-1-yl)methyl]-2-methoxyphenyl N-{3-[amino(imino)methyl]phenyl}-N-methyl-L-norleucinate 2 trifluoroacetate] | 977 | 3.09 | 6.90
7 | CCC[C@H](C(=O)Oc1ccc(OC2CCN(C(C)=N)CC2)cc1)N(C)c1cccc(C(=N)N)c1 [compound of Ex. 44, 4-[(1-ethanimidoylpiperidin-4-yl)oxy]phenyl N-{3-[amino(imino)methyl]phenyl}-N-methyl-L-norvalinate 2 trifluoroacetate] | 1740 | 3.16 | 6.87
8 | N=C(N)c1cccc(N2CCCC[C@@H]2C(=O)Oc2ccc(C(=N)N3CCCC3)cc2Cl)c1 [compound of Ex. 20, 2-chloro-4-[imino(pyrrolidin-1-yl)methyl]phenyl (2R)-1-{3-[amino(imino)methyl]phenyl}piperidine-2-carboxylate 2 trifluoroacetate] | 1200 | 6.46 | 6.93
9 | CCC(C(=O)Oc1ccc(C(=N)N2CCCC2)cc1)N(C)c1cccc(C(=N)N)c1 (centres unmarked) [compound of Ex. 47, 4-[imino(pyrrolidin-1-yl)methyl]phenyl 2-[{3-[amino(imino)methyl]phenyl}(methyl)amino]butanoate 2 trifluoroacetate] | 22400 | 8.13 | 6.82
10 | COc1cc(C(=N)N2CCCC2)ccc1OC(=O)[C@H](C)N(C)c1cccc(C(=N)N)c1 [compound of Ex. 36, 4-[imino(pyrrolidin-1-yl)methyl]-2-methoxyphenyl N-{3-[amino(imino)methyl]phenyl}-N-methyl-L-alaninate 2 trifluoroacetate] | 7080 | 31.6 | 6.67
11 | COC(=O)c1cc(C(=N)N2CCCC2)ccc1OC(=O)[C@H]1CCCCN1c1cccc(C(=N)N)c1 [compound of Ex. 51, 4-[imino(pyrrolidin-1-yl)methyl]-2-(methoxycarbonyl)phenyl (2R)-1-{3-[amino(imino)methyl]phenyl}piperidine-2-carboxylate 2 trifluoroacetate] | 2240 | 14.1 | 6.79
12 | CN(c1cccc(C(=N)N)c1)[C@@H](Cc1ccccc1)C(=O)Oc1ccc(C(=N)N2CCCC2)cc1 [compound of Ex. 46, 4-[imino(pyrrolidin-1-yl)methyl]phenyl N-{3-[amino(imino)methyl]phenyl}-N-methyl-L-phenylalaninate 2 trifluoroacetate] | 15500 | 2.95 | 6.87
13 | CCC(C)[C@H](C(=O)Oc1ccc(C(=N)N2CCCC2)cc1F)N(C)c1cccc(C(=N)N)c1 (stereo partly drawn) [compound of Ex. 39, 2-fluoro-4-[imino(pyrrolidin-1-yl)methyl]phenyl N-{3-[amino(imino)methyl]phenyl}-N-methyl-L-isoleucinate 2 trifluoroacetate] | 25700 | 15.1 | 6.50
14 | N=C(N)c1cccc(N2CCCC[C@@H]2C(=O)Oc2ccc(C(=N)N3CCCC3)cc2F)c1 [compound of Ex. 21, 2-fluoro-4-[imino(pyrrolidin-1-yl)methyl]phenyl (2R)-1-{3-[amino(imino)methyl]phenyl}piperidine-2-carboxylate 2 trifluoroacetate] | 1910 | 5.13 | 6.94
15 | N=C(N)c1cccc(N2C[C@H](O)C[C@H]2C(=O)Oc2ccc(C(=N)N3CCCC3)cc2)c1 [compound of Ex. 15, 4-[imino(pyrrolidin-1-yl)methyl]phenyl (4R)-1-[(3-[amino(imino)methyl]phenyl]-4-hydroxy-L-prolinate 2 trifluoroacetate] | 28200 | 224 | 5.68
16 | CCCC[C@H](C(=O)Oc1ccc(OC2CCN(C(C)=N)CC2)cc1)N(C)c1cccc(C(=N)N)c1 [compound of Ex. 41, 4-[(1-ethanimidoylpiperidin-4-yl)oxy]phenyl N-{3-[amino(imino)methyl]phenyl}-N-methyl-L-norleucinate 2 trifluoroacetate] | 2190 | 2.95 | 6.53
17 | N=C(N)c1cccc(N2CCCC[C@@H]2C(=O)Oc2ccc(C(=N)N3CCCC3)cc2C(=O)O)c1 [compound of Ex. 52, 2-{[((2R)-1-{3-[amino(imino)methyl]phenyl}piperidin-2-yl)carbonyl]oxy}-5-[imino(pyrrolidin-1-yl)methyl]benzoic acid 2 trifluoroacetate] | > 100000 | 18.2 | 6.35
18 | CC(=N)N1CCC(Oc2ccc(OC(=O)[C@@H](COC(C)(C)C)N(C)c3cccc(C(=N)N)c3)cc2)CC1 [compound of Ex. 40, 4-[(1-ethanimidoylpiperidin-4-yl)oxy]phenyl N-{3-[amino(imino)methyl]phenyl}-O-(tert-butyl)-N-methyl-L-serinate 2 trifluoroacetate] | 34700 | 4.47 | 6.53
19 | CC(=N)N1CCC(Oc2ccc(OC(=O)[C@H](CO)N(C)c3cccc(C(=N)N)c3)cc2)CC1 [compound of Ex. 42, 4-[(1-ethanimidoylpiperidin-4-yl)oxy]phenyl N-{3-[amino(imino)methyl]phenyl}-N-methyl-L-serinate 2 trifluoroacetate] | 51300 | 13.8 | 6.64
20 | CC(=N)N1CCC(Oc2ccc(OC(=O)c3cc(C(F)(F)F)nn3-c3cccc(C(=N)N)c3)cc2)CC1 [compound of Ex. 57, 4-[(1-ethanimidoylpiperidin-4-yl)oxy]phenyl 1-{3-[amino(imino)methyl]phenyl}-3-(trifluoromethyl)-1H-pyrazole-5-carboxylate 2 trifluoroacetate] | 6920 | 5.37 | 
21 | CCC(C)[C@@H](C(=O)Oc1ccc(C(=N)N2CCCC2)cc1)N(C)c1cccc(C(=N)N)c1 (stereo partly drawn) [compound of Ex. 33, 4-[imino(pyrrolidin-1-yl)methyl]phenyl N-{3-[amino(imino)methyl]phenyl}-N-methyl-L-isoleucinate 2 trifluoroacetate] | 13200 | 8.13 | 6.80
